Drawing on PubChem BioAssay (NCI), this text covers TGI and GI50 for 29 molecules.

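Compound exposure: 48 hours, 5 concentrations, 96-well plates. Abbreviation: GI50, concentration required for 50% inhibition of growth. TGI: total growth inhibition.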

The first experiment concerns OVCAR-5 ovarian. As to the kind of experiment: inhibition of tumour cell growth, NCI panel, 48 h.
As for `O=C1[C@H]2ON(c3ccccc3)C(c3ccco3)[C@H]2C(=O)N1c1ccc(Cc2ccc(N3C(=O)[C@@H]4ON(c5ccccc5)C(c5ccco5)[C@@H]4C3=O)cc2)cc1` (some centres undefined), the TGI is above 100 µM.

`CCCCCCC(C)CCCCCCCCCCC(=O)O` (centres undefined): the TGI was above 100 µM.

`CC(C)(C)c1ccc(OC2CCO2)cc1` (centres undefined) gave a TGI of 98.7 µM.

Consider `CC1(O)CCn2c(=O)c3cc4ccccc4cc3c(=O)n2C1O` (centres undefined), for which the TGI is above 100 µM.

Turning to `CC(C)[O-].CC(C)[O-].O=c1cccccc1[O-].O=c1cccccc1[O-].[Ti+4]`, the TGI is above 100 µM.

In turn, `COc1cc(CNc2nc3ccc(C(F)(F)F)cc3nc2-c2ccccc2)cc(OC)c1OC` displayed a TGI above 100 µM.

`COc1ccccc1NC(=O)/C(=C/c1ccccc1)C(C)=O` yielded a TGI above 100 µM.

Molecule `CC(=O)n1c(=O)c2cc3c(=O)n(-c4cccc(C#N)c4)c(=O)c3cc2c1=O` came in with a TGI above 100 µM.

Molecule `O=C(CC1(O)C(=O)Nc2c(Cl)ccc(Cl)c21)c1ccc(Cl)cc1Cl` (centres undefined) gave a TGI of 35.6 µM.

The molecule `CC1=NN(C(=O)c2ccncc2)C(=O)C1N=Nc1ccc(F)cc1` (centres undefined) had a TGI above 100 µM.

`COc1ccc(C2Oc3c(c(O)cc4c3[C@H](c3ccc(O)cc3O)[C@H](O)C(c3ccc(O)c(O)c3)O4)C[C@@H]2O)cc1O` (some centres undefined) returned a TGI above 100 µM.

As to `CCOC(OC1=C(C#N)CCCC1)C(CC)[Se]c1ccccc1` (centres undefined), the TGI turned out to be 86.4 µM.

The molecule `C=C1C2Oc3ccccc3C1N(c1ccccc1)O2` (centres undefined) had a TGI above 100 µM.

Consider `O=S1CSSC1`, for which the TGI was 36.7 µM.

In turn, `C=CCNC(=O)N(CCC)CCCC(NC(C)=O)C(=O)NCc1ccccc1` (centres undefined) displayed a TGI above 100 µM.

In turn, `CN(C)C(=S)Nc1nnc(Nc2ccccc2)s1` registered a TGI above 100 µM.

Consider `CC(=O)[CH-]C(=O)c1ccccc1.CC(=O)[CH-]C(=O)c1ccccc1.CC1(C)OCC(C2OC3OC(C)(C)OC3C2[O-])O1.CC[O-].[Ti+4]` (centres undefined), for which the GI50 is 14.2 µM and the TGI was 31.5 µM.

For `O=[N+]([O-])c1ccc(-c2cc3c(Nc4ccc(Cl)c(C(F)(F)F)c4)ncnc3s2)cc1`, the GI50 was 1.35 µM and the TGI was above 100 µM.

Consider `Cc1ccccc1/C=C/C(=O)c1ccccc1`, for which the TGI worked out at 30.9 µM.

For the molecule `C[C@]12C/C(=C/O)C(=O)C(O)=C1CC[C@@H]1C2CC[C@@]2(C)C1CC[C@@H]2O` (some centres undefined), the TGI turned out to be 46.1 µM.

Consider `Cc1ccc(C)c(N2C(=O)C(=O)C(c3nc4ccccc4s3)C(=Nc3cccc4c(=O)[nH][nH]c(=O)c34)C2=O)c1` (centres undefined), for which the TGI was above 100 µM.

In turn, `Cc1cccc(C)c1N1C(=O)C(=O)C(c2nc3ccccc3s2)C(=Nc2cccc3c(=O)[nH][nH]c(=O)c23)C1=O` (centres undefined) came in with a TGI above 100 µM.

Take `N#CC(C#N)=c1c2nsnc2c(=C(C#N)C#N)c2nsnc12`: the TGI worked out at 3.3 µM.

Another experiment deals with OVCAR-8 ovarian. As to the kind of experiment: inhibition of tumour cell growth, NCI panel, 48 h.
Molecule `Cc1c2ccncc2c(C)c2c1[nH]c1ccc(O)c(OCC(F)(F)F)c12` returned a TGI of 26 µM.

`CC(C)(C)OC(=O)NC1CCCC1=O` (centres undefined) displayed a TGI above 100 µM.

On to `Cc1c(C(=O)/C=C/c2ccccc2[N+](=O)[O-])[n+](=O)c2ccccc2n1[O-]`, for which the TGI was 14.3 µM.

For `Cc1cccc(C)c1N1C(=O)C(=O)C(c2nc3ccccc3s2)/C(=N/NC(=O)NN)C1=O` (centres undefined), the TGI is above 100 µM.

For the molecule `CCCCCCC(C)CCCCCCCCCCC(=O)O` (centres undefined), the TGI is above 100 µM.

Take `CC(C)(C)c1ccc(OC2CCO2)cc1` (centres undefined): the TGI was above 100 µM.

Consider `CC1(O)CCn2c(=O)c3cc4ccccc4cc3c(=O)n2C1O` (centres undefined), for which the TGI is above 100 µM.

The molecule `CC(C)[O-].CC(C)[O-].O=c1cccccc1[O-].O=c1cccccc1[O-].[Ti+4]` had a TGI above 100 µM.

Turning to `COc1cc(CNc2nc3ccc(C(F)(F)F)cc3nc2-c2ccccc2)cc(OC)c1OC`, the TGI was above 100 µM.

As to `COc1ccccc1NC(=O)/C(=C/c1ccccc1)C(C)=O`, the TGI was above 100 µM.

With `CC(=O)n1c(=O)c2cc3c(=O)n(-c4cccc(C#N)c4)c(=O)c3cc2c1=O`, the TGI is above 100 µM.

As for `O=C(CC1(O)C(=O)Nc2c(Cl)ccc(Cl)c21)c1ccc(Cl)cc1Cl` (centres undefined), the TGI was 41.6 µM.

As to `CC1=NN(C(=O)c2ccncc2)C(=O)C1N=Nc1ccc(F)cc1` (centres undefined), the TGI was above 100 µM.

`COc1ccc(C2Oc3c(c(O)cc4c3[C@H](c3ccc(O)cc3O)[C@H](O)C(c3ccc(O)c(O)c3)O4)C[C@@H]2O)cc1O` (some centres undefined) returned a TGI above 100 µM.

`CCOC(OC1=C(C#N)CCCC1)C(CC)[Se]c1ccccc1` (centres undefined) registered a TGI of 34.7 µM.

Take `C=C1C2Oc3ccccc3C1N(c1ccccc1)O2` (centres undefined): the TGI is 33.2 µM.

In the case of `O=S1CSSC1`, the TGI came to 52 µM.

`C=CCNC(=O)N(CCC)CCCC(NC(C)=O)C(=O)NCc1ccccc1` (centres undefined): the TGI is above 100 µM.

Take `CN(C)C(=S)Nc1nnc(Nc2ccccc2)s1`: the TGI is above 100 µM.

`CC(=O)[CH-]C(=O)c1ccccc1.CC(=O)[CH-]C(=O)c1ccccc1.CC1(C)OCC(C2OC3OC(C)(C)OC3C2[O-])O1.CC[O-].[Ti+4]` (centres undefined): the GI50 is 11.5 µM and the TGI is 26.9 µM.

Take `CCOC(=O)C1(Cc2ccc3ccccc3c2)CCCCC(=O)N1` (centres undefined): the TGI was above 100 µM.

For `O=[N+]([O-])c1ccc(-c2cc3c(Nc4ccc(Cl)c(C(F)(F)F)c4)ncnc3s2)cc1`, the GI50 was 2.67 µM and the TGI was above 100 µM.

`Cc1ccccc1/C=C/C(=O)c1ccccc1` had a TGI of 63.9 µM.

The molecule `COC(=O)C1C(=O)N(CCc2c[nH]c3ccccc23)C[C@@H]2CCC(=O)C[C@H]12` (some centres undefined) came in with a TGI above 100 µM.

For the molecule `C[C@]12C/C(=C/O)C(=O)C(O)=C1CC[C@@H]1C2CC[C@@]2(C)C1CC[C@@H]2O` (some centres undefined), the TGI is 75.6 µM.

`Cc1ccc(C)c(N2C(=O)C(=O)C(c3nc4ccccc4s3)C(=Nc3cccc4c(=O)[nH][nH]c(=O)c34)C2=O)c1` (centres undefined): the TGI was above 100 µM.

Molecule `Cc1cccc(C)c1N1C(=O)C(=O)C(c2nc3ccccc3s2)C(=Nc2cccc3c(=O)[nH][nH]c(=O)c23)C1=O` (centres undefined) came in with a TGI above 100 µM.

With `N#CC(C#N)=c1c2nsnc2c(=C(C#N)C#N)c2nsnc12`, the TGI is 3.12 µM.

A further experiment deals with RXF 393 renal. As to the kind of experiment: inhibition of tumour cell growth, NCI panel, 48 h.
With `CC(C)(C)OC(=O)NC1CCCC1=O` (centres undefined), the TGI was above 100 µM.

On to `O=C1[C@H]2ON(c3ccccc3)C(c3ccco3)[C@H]2C(=O)N1c1ccc(Cc2ccc(N3C(=O)[C@@H]4ON(c5ccccc5)C(c5ccco5)[C@@H]4C3=O)cc2)cc1` (some centres undefined), for which the TGI is above 100 µM.

`Cc1cccc(C)c1N1C(=O)C(=O)C(c2nc3ccccc3s2)/C(=N/NC(=O)NN)C1=O` (centres undefined): the TGI is above 100 µM.

Turning to `CCCCCCC(C)CCCCCCCCCCC(=O)O` (centres undefined), the TGI was above 100 µM.

Consider `CC1(O)CCn2c(=O)c3cc4ccccc4cc3c(=O)n2C1O` (centres undefined), for which the TGI was above 100 µM.

Take `COc1ccccc1NC(=O)/C(=C/c1ccccc1)C(C)=O`: the TGI amounted to 53.8 µM.

`CC(=O)n1c(=O)c2cc3c(=O)n(-c4cccc(C#N)c4)c(=O)c3cc2c1=O` had a TGI above 100 µM.

As for `O=C(CC1(O)C(=O)Nc2c(Cl)ccc(Cl)c21)c1ccc(Cl)cc1Cl` (centres undefined), the TGI is 42.3 µM.

Molecule `CC1=NN(C(=O)c2ccncc2)C(=O)C1N=Nc1ccc(F)cc1` (centres undefined) showed a TGI above 100 µM.
